We go through 25 compounds from patent US8153809B2, “Dihydropyridone ureas as P2X7 modulators” (Roche Palo Alto LLC, priority 2008, dated 2012).

The assay has as its target T1, P2X7 (UniProt Q99572).
T1 sequence (Q99572 1-595): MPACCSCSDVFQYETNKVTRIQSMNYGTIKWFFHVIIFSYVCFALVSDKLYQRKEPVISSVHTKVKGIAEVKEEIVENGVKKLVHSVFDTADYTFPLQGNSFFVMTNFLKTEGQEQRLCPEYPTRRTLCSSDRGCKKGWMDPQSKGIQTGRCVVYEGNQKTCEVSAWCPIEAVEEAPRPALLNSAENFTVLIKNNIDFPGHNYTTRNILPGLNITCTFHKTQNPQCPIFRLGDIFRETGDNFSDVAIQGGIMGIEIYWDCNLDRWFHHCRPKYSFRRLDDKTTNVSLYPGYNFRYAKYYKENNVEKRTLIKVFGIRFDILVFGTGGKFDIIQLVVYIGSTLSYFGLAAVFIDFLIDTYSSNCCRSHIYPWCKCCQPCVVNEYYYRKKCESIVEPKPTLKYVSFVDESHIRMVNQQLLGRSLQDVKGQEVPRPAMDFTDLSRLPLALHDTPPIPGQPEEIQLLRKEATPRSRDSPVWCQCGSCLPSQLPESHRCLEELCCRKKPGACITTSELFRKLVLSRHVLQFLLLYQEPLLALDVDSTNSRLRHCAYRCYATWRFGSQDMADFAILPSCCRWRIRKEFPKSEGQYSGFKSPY
Put plainly: pIC50 values for P2X7 (Table 1). The class given is cell-based. On the procedure:
Intracellular Calcium Flux (FLIPR) Assay
Compound and Reagent Preparation
Stock solutions of compounds were prepared from powders as a 10 mM DMSO stock solution. These solutions were stored at RT during the two week period of these experiments to prevent freeze-thaw of the DMSO stocks. The DMSO stocks were added to the appropriate assay buffer at a concentration of 10 μM, and then diluted serially to the final concentrations that were tested. […] The aqueous solutions of compounds as well as ATP (Sigma A7699) and BzATP (Sigma B6396) were prepared fresh for each day of experiment.
1321N1 cells stably expressing the full length human P2X7 gene (1321N1-hP2X7) and HEK293 cells stably expressing the full length rat P2X7 gene (HEK293-rP2X7) were obtained from the Roche Cell Culture Facility. 1321N1-hP2X7 cells were grown in Dulbecco's Modified Eagle's Medium (DMEM) high glucose supplemented with 10% FBS and 250 μg/mL G418. HEK293-rP2X7 cells were grown in DMEM/F-12 supplemented with 10% FBS, 1 mM CaCl2, 2 mM MgCl2, 2 mM L-Glutamine and 500 μg/ml G418. Cells were split such that they never became >70% confluent.
Intracellular Calcium Flux (FLIPR)
On the day prior to the experiment, 1321N1-hP2X7 or HEK293-rP2X7 cells were released into suspension with calcium-free PBS+Versene and washed by centrifugation with calcium-free PBS to remove the Versene.
On the day of the experiment, plates were washed with FLIPR buffer (calcium- and magnesium-free Hank's Balanced Salt Solution (HBSS) supplemented with 10 mM Hepes, 2.5 mM probenecid and 2 mM calcium chloride) using a BIO-TEK 96 channel plate washer and incubated with […] fluo-3 dye at 37° C. for one hr. The dye was then removed by plate washing and the cells were allowed to equilibrate for 20 min at room temperature with antagonist or vehicle (FLIPR buffer). Agonist (100 μM BzATP final concentration for hP2X7; 5 μM BzATP final concentration or rP2X7) was added online with the FLIPR and fluorescence measurements made at 1 sec intervals for 60 sec followed by 3 sec intervals for a further 4 min (5 min total). A final addition of 5 μM ionomycin was made and the maximal BzATP-evoked fluorescence normalized to the maximal ionomycin-evoked fluorescence.
For orientation: pIC50 means the IC50 on a negative log10 scale, so that one unit is a factor of ten. Consider `O=C1C=CN(C(=O)Nc2cc(OCCO)c(Cl)cc2Br)[C@H](c2cccc(F)c2)C1` [Compound 50, (S)-2-(3-Fluoro-phenyl)-4-oxo-3,4-dihydro-2H-pyridine-1-carboxylic acid [2-bromo-4-chloro-5-(2-hydroxy-ethoxy)-phenyl]-amide], for which the negative-log IC50 (pIC50) is listed as 7.407.

As to `CC(=O)c1cc(NC(=O)N2C=CC(=O)C[C@H]2c2ccc(F)cc2)c(Br)cc1Cl` [Compound 51, (S)-2-(4-Fluoro-phenyl)-4-oxo-3,4-dihydro-2H-pyridine-1-carboxylic acid (5-acetyl-2-bromo-4-chloro-phenyl)-amide], the negative logarithm of the IC50 (pIC50) is recorded as 6.857.

In turn, `Cn1ccc2ccc(NC(=O)N3C=CC(=O)CC3c3ccc(F)cc3)cc21` (stereo not shown) [Compound 52, 2-(4-Fluoro-phenyl)-4-oxo-3,4-dihydro-2H-pyridine-1-carboxylic acid (1-methyl-1H-indol-6-yl)-amide] showed a pIC50 of 7.065.

Compound `COc1ccc(C)c(NC(=O)N2C=CC(=O)C[C@H]2c2cccc(F)c2)c1` [Compound 53, (S)-2-(3-Fluoro-phenyl)-4-oxo-3,4-dihydro-2H-pyridine-1-carboxylic acid (5-methoxy-2-methyl-phenyl)-amide] displayed a negative-log IC50 (pIC50) of 8.01.

Take `CS(=O)(=O)CCCOc1cc(NC(=O)N2C=CC(=O)C[C@H]2c2ccc(F)cc2)c(Br)cc1Cl` [Compound 54, (S)-2-(4-Fluoro-phenyl)-4-oxo-3,4-dihydro-2H-pyridine-1-carboxylic acid [2-bromo-4-chloro-5-(3-methanesulfonyl-propoxy)-phenyl]-amide]: the pIC50 is given as 6.38.

In turn, `COc1cc(NC(=O)N2C=CC(=O)C[C@H]2c2ccc(F)cc2)c(Br)cc1C(=O)OC(C)(C)C` [Compound 55, 5-Bromo-4-{[(S)-2-(4-fluoro-phenyl)-4-oxo-3,4-dihydro-2H-pyridine-1-carbonyl]-amino}-2-methoxy-benzoic acid tert-butyl ester] yielded a pIC50 of 5.845.

For the compound `COc1ccc(S(C)(=O)=O)cc1NC(=O)N1C=CC(=O)CC1c1ccc(F)cc1` (stereo not shown) [Compound 56, 2-(4-Fluoro-phenyl)-4-oxo-3,4-dihydro-2H-pyridine-1-carboxylic acid (5-methanesulfonyl-2-methoxy-phenyl)-amide], the pIC50 came out at 5.11.

As for `CC(O)c1cc(NC(=O)N2C=CC(=O)C[C@H]2c2ccc(F)cc2)c(Br)cc1Cl` (stereo partly drawn) [Compound 57, (S)-2-(4-Fluoro-phenyl)-4-oxo-3,4-dihydro-2H-pyridine-1-carboxylic acid [2-bromo-4-chloro-5-(1-hydroxy-ethyl)-phenyl]-amide], the pIC50 is 7.42.

Compound `Cc1cc(F)c(NC(=O)N2C=CC(=O)C[C@H]2c2cccc(F)c2)cc1OCCO` [Compound 58, (S)-2-(3-Fluoro-phenyl)-4-oxo-3,4-dihydro-2H-pyridine-1-carboxylic acid [2-fluoro-5-(2-hydroxy-ethoxy)-4-methyl-phenyl]-amide] yielded a pIC50 of 6.43.

On to `Cc1cc(F)c(NC(=O)N2C=CC(=O)C[C@H]2c2ccc(F)cc2)cc1OCCO` [Compound 59, (S)-2-(4-Fluoro-phenyl)-4-oxo-3,4-dihydro-2H-pyridine-1-carboxylic acid [2-fluoro-5-(2-hydroxy-ethoxy)-4-methyl-phenyl]-amide], for which the pIC50 worked out at 6.62.

With `COc1cc(NC(=O)N2C=CC(=O)C[C@H]2c2ccc(F)cc2)c(Br)cc1C(N)=O` [Compound 60, (S)-2-(4-Fluoro-phenyl)-4-oxo-3,4-dihydro-2H-pyridine-1-carboxylic acid (2-bromo-4-carbamoyl-5-methoxy-phenyl)-amide], the pIC50 was found to be 5.78.

Turning to `O=C1C=CN(C(=O)Nc2cc3c(cc2Br)OC(F)(F)O3)[C@H](c2ccc(F)cc2)C1` [Compound 61, (S)-2-(4-Fluoro-phenyl)-4-oxo-3,4-dihydro-2H-pyridine-1-carboxylic acid (6-bromo-2,2-difluoro-benzo[1,3]dioxol-5-yl)-amide], the pIC50 turned out to be 6.365.

In turn, `O=C1C=CN(C(=O)Nc2c(F)cccc2F)C(c2ccc(F)cc2)C1` (stereo not shown) [Compound 62, 2-(4-Fluoro-phenyl)-4-oxo-3,4-dihydro-2H-pyridine-1-carboxylic acid (2,6-difluoro-phenyl)-amide] displayed a pIC50 of 5.51.

Compound `COc1cc(NC(=O)N2C=CC(=O)C[C@H]2c2ccc(F)cc2)c(Br)cc1C#N` [Compound 63, (S)-2-(4-Fluoro-phenyl)-4-oxo-3,4-dihydro-2H-pyridine-1-carboxylic acid (2-bromo-4-cyano-5-methoxy-phenyl)-amide] had a pIC50 of 6.74.

For the compound `O=C1C=CN(C(=O)NC23CC4CC(CC(C4)C2)C3)C(c2ccc(F)cc2)C1` (stereo not shown) [Compound 64, 2-(4-Fluoro-phenyl)-4-oxo-3,4-dihydro-2H-pyridine-1-carboxylic acid adamantan-1-ylamide], the pIC50 was found to be 5.98.

On to `COc1ccc(OC)c(NC(=O)N2C=CC(=O)CC2c2ccc(F)cc2)c1` (stereo not shown) [Compound 65, 2-(4-Fluoro-phenyl)-4-oxo-3,4-dihydro-2H-pyridine-1-carboxylic acid (2,5-dimethoxy-phenyl)-amide], for which the pIC50 turned out to be 6.23.

The compound `COC(=O)c1cccc(NC(=O)N2C=CC(=O)CC2c2ccc(F)cc2)c1C` (stereo not shown) [Compound 66, 3-{[2-(4-Fluoro-phenyl)-4-oxo-3,4-dihydro-2H-pyridine-1-carbonyl]-amino}-2-methyl benzoic acid methyl ester] yielded a pIC50 of 6.8.

Regarding `COc1cccc(NC(=O)N2C=CC(=O)CC2c2ccc(F)cc2)c1` (stereo not shown) [Compound 67, 2-(4-Fluoro-phenyl)-4-oxo-3,4-dihydro-2H-pyridine-1-carboxylic acid (3-methoxy-phenyl)-amide], the pIC50 came out at 6.31.

Regarding `COc1ccc(NC(=O)N2C=CC(=O)CC2c2ccc(F)cc2)c(OC)c1` (stereo not shown) [Compound 69, 2-(4-Fluoro-phenyl)-4-oxo-3,4-dihydro-2H-pyridine-1-carboxylic acid (2,4-dimethoxy-phenyl)-amide], the pIC50 worked out at 6.07.

`COc1cc(NC(=O)N2C=CC(=O)C[C@H]2c2cccc(F)c2)ccc1C` [Compound 70, (S)-2-(3-Fluoro-phenyl)-4-oxo-3,4-dihydro-2H-pyridine-1-carboxylic acid (3-methoxy-4-methyl-phenyl)-amide] showed a pIC50 of 6.84.

Turning to `COc1cc(NC(=O)N2C=CC(=O)C[C@H]2c2ccc(F)cc2)ccc1Cl` [Compound 71, (S)-2-(4-Fluoro-phenyl)-4-oxo-3,4-dihydro-2H-pyridine-1-carboxylic acid (4-chloro-3-methoxy-phenyl)-amide], the pIC50 stood at 6.245.

For the compound `COc1cc(NC(=O)N2C=CC(=O)C[C@H]2c2cccc(F)c2)ccc1Cl` [Compound 72, (S)-2-(3-Fluoro-phenyl)-4-oxo-3,4-dihydro-2H-pyridine-1-carboxylic acid (4-chloro-3-methoxy-phenyl)-amide], the pIC50 stood at 6.295.

As to `COc1cc(NC(=O)N2C=CC(=O)C[C@H]2c2cccc(F)c2)ccc1F` [Compound 73, (S)-2-(3-Fluoro-phenyl)-4-oxo-3,4-dihydro-2H-pyridine-1-carboxylic acid (4-fluoro-3-methoxy-phenyl)-amide], the pIC50 turned out to be 6.83.

`Cc1cc2ncccc2cc1NC(=O)N1C=CC(=O)C[C@H]1c1ccc(F)cc1` [Compound 74, (S)-2-(4-Fluoro-phenyl)-4-oxo-3,4-dihydro-2H-pyridine-1-carboxylic acid (7-methyl-quinolin-6-yl)-amide] returned a pIC50 of 7.35.

Take `COc1cc(Br)c(CNC(=O)N2C=CC(=O)CC2c2ccc(F)cc2)cc1OC` (stereo not shown) [Compound 75, 2-(4-Fluoro-phenyl)-4-oxo-3,4-dihydro-2H-pyridine-1-carboxylic acid 2-bromo-4,5-dimethoxy-benzylamide]: the pIC50 came to 5.075.
